From US8946142B2, “Beta-arrestin effectors and compositions and methods of use thereof” (Trevena, Inc., priority 2012, dated 2015)
Where a SMILES comes first, the peptide text is derived from it. [ ]: non-standard residue; d: D form. Tle = CC(C)(C)[C@H](N)C(=O)O; Ac6c = NC1(C(=O)O)CCCCC1; Ac5c = NC1(C(=O)O)CCCC1; Sar = CNCC(=O)O

Tests used:
Assay type in all cases: cell-based
rat AT1aR [1] = target: T1, rat AT1aR (Rattus norvegicus, UniProt P25095); assay: IP1 accumulation assay (IP1 G-protein assay), rat AT1aR; settings: for Emax: read-out: Span (relative to hAngII)
T1 sequence (P25095 1-359): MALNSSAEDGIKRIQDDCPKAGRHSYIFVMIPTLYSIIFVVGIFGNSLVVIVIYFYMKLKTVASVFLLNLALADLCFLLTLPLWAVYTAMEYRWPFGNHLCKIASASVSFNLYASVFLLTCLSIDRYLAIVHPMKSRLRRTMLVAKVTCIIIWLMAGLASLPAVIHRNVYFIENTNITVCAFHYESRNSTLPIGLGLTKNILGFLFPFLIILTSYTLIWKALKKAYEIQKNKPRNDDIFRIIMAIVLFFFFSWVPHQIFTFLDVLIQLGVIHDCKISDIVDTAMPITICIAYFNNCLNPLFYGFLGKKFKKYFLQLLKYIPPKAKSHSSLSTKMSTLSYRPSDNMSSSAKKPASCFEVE
Method: (§1) A secondary measure of G protein coupling efficacy was also performed. IP3 is generated by activation of phospholipase C by Gα-q. IP3 is degraded to IP1, which can be forced to accumulate in cells by blocking degradation with lithium chloride. Thus we measured accumulation of IP1 to determine ligand efficacy for G protein activation.
(§2) IP1 accumulation generated by human and rat angiotensin 2 type 1 receptor (human AT1R and rat AT1aR, respectively) was measured with IP-One Tb kits purchased from Cisbio and used per the manufacturer's instructions. Clonal stably transfected cell lines expressing human AT1TR or rat AT1aR were used for all experiments.
(§3) For assays, 4,000-8,000 cells were seeded per well in 384-well small-volume microplates “HiBase” small-volume plate in volumes of 20 uL and allowed to grow overnight at 37° C. in 5% CO2. Cell growth media was then replaced with stimulation buffer supplied by Cisbio containing 50 mM lithium chloride. […] For agonist detection, peptides were then further diluted in stimulation buffer to add peptide to the cells to reach final concentrations ranging from 100 uM to 1 pM. Following addition of peptides, cells were incubated at 37° C. in 5% CO2 for 30 minutes and then lysed with 4 uL of pre-mixed HTRF IP-One reagents diluted per manufacturer's instructions (Cisbio). Microplates were incubated for 60-90 minutes at room temperature and then time-resolved fluorescence intensities were measured using a PHERAstar Plus microplate reader from BMG Labtech. IP1 accumulation was measured as change in ratio of time-resolved fluorescent intensities measured at 665 nm and 620 nm.

human AT1R [2] = target: T2, human AT1R (Homo sapiens, UniProt P30556); assay: IP1 accumulation assay (IP1 G-protein assay), human AT1R; settings: for Emax: read-out: Span (relative to hAngII)
T2 sequence (P30556 1-359): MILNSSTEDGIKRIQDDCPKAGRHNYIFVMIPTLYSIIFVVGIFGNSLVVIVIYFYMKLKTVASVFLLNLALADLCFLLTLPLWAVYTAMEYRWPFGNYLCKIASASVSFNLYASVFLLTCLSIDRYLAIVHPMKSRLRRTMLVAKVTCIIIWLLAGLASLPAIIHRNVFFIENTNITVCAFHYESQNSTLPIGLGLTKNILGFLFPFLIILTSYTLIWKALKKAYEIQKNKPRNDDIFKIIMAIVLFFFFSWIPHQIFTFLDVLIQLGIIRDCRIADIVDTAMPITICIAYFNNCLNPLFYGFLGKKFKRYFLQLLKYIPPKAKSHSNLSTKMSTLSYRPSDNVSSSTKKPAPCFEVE
Method: as §1, §2, §3

rat AT1aR [3] = target: T1, rat AT1aR; assay: beta-arrestin2 recruitment assay (PathHunter), rat AT1aR; settings: for Emax: 1 h, read-out: Span (relative to hAngII)
Method: (§4) The proximal event in β-arrestin function mediated by GPCRs is recruitment to receptors following ligand binding and receptor phosphorylation by GRK's. Thus, the measure of β-arrestin recruitment was used to determine ligand efficacy for β-arrestin function.
(§5) B-arrestin-2 recruitment to the human and rat angiotensin 2 type 1 receptor (human AT1R and rat AT1aR, respectively) was measured with the PathHunter™ μl-arrestin assay (DiscoveRx Corporation, Fremont Calif.). Cells, plasmid(s), and detection reagent(s) were purchased from DiscoveRx, and assays were performed per manufacturer's instructions. Human AT1R and rat AT1aR were cloned into the pCMV-ProLink vector, verified by sequencing, and transfected into PathHunter β-arrestin HEK293 cells. Stably transfected clonal cell lines were selected with Hygromycin and G418. These clonal cell lines were used for all experiments.
(§6) For assays, 4,000-8,000 cells were seeded per well in 384-well microplates “HiBase” small-volume plate in volumes of 20 uL and grown overnight in the incubator (37° C., 5% CO2, saturated humidity). Peptides were dissolved in DMSO to a concentration of 10 mM. Peptides were then further diluted in assay buffer (Hank's balanced salt solution with 20 mM HEPES) to add peptide to the cells to reach final concentrations ranging from 100 μM to 1 pM. Cells were then incubated for 60 minutes at 37° C. in 5% CO2, followed by addition of 2 μL of PathHunter Detection Reagent to each well. The microplates were then incubated at room temperature for 60 minutes, and then luminescence was measured using a PHERAstar Plus microplate reader from BMG Labtech. B-arrestin-2 recruitment to receptors was measured as relative luminescence intensity expressed in arbitrary units.

human AT1R [4] = target: T2, human AT1R; assay: beta-arrestin2 recruitment assay (PathHunter), human AT1R; settings: for Emax: 1 h, read-out: Span (relative to hAngII)
Method: as §4, §5, §6

| SMILES | EC50 (rat AT1aR [1]; read-out: EC50) | Emax (rat AT1aR [1]) | EC50 (rat AT1aR [1]; read-out: pEC50 (converted)) | EC50 (human AT1R [2]; read-out: EC50) | Emax (human AT1R [2]) | EC50 (human AT1R [2]; read-out: pEC50 (converted)) | Emax (rat AT1aR [3]) | EC50 (rat AT1aR [3]; read-out: EC50) | EC50 (rat AT1aR [3]; read-out: pEC50 (converted)) | Emax (human AT1R [4]) | EC50 (human AT1R [4]; read-out: EC50) | EC50 (human AT1R [4]; read-out: pEC50 (converted)) |
| --- | --- | --- | --- | --- | --- | --- | --- | --- | --- | --- | --- | --- |
| CNCC(=O)N[C@@H](CCCNC(=N)N)C(=O)N[C@H](C(=O)N[C@@H](Cc1ccc(O)cc1)C(=O)NC1(C(=O)N[C@@H](Cc2c[nH]cn2)C(=O)N2CCC[C@H]2C(=O)N[C@@H](CCSC)C(=O)O)CCCC1)C(C)C [SEQ ID NO: 23, Sar-Arg-Val-Tyr-cyPen-His-Pro-Met] (H-[Sar]RVY[Ac5c]HPM-OH) | > 0.6 nM | < 104% | > 0.631 nM | > 1.3 nM | < 103% | > 0.631 nM | < 105% | > 3.2 nM | > 3.16 nM | < 101% | > 3.2 nM | > 3.16 nM |
| CNCC(=O)N[C@@H](CCCNC(=N)N)C(=O)N[C@H](C(=O)N[C@@H](Cc1ccc(O)cc1)C(=O)N1CCC[C@H]1C(=O)N[C@@H](Cc1c[nH]cn1)C(=O)N1CCC[C@H]1C(=O)N[C@@H](CCSC)C(=O)O)C(C)C [SEQ ID NO: 9, Sar-Arg-Val-Tyr-Pro-His-Pro-Met] (H-[Sar]RVYPHPM-OH; N-terminus and C-terminus assumed) |  | < 104% |  |  | < 103% |  | < 105% |  |  | < 101% |  |  |
| CNCC(=O)N[C@@H](CCCNC(=N)N)C(=O)N[C@H](C(=O)N[C@@H](Cc1ccc(O)cc1)C(=O)N1CCC[C@H]1C(=O)N[C@@H](Cc1c[nH]cn1)C(=O)N1CCC[C@H]1C(=O)N[C@H](C(=O)O)[C@@H](C)O)C(C)C [SEQ ID NO: 7, Sar-Arg-Val-Tyr-Pro-His-Pro-Thr] (H-[Sar]RVYPHPT-OH) | > 0.6 nM |  | > 0.631 nM | > 10000 nM |  | > 0.631 nM | < 105% | > 3.2 nM | > 3.16 nM | < 101% | > 3.2 nM | > 3.16 nM |
| CNCC(=O)N[C@@H](CCCNC(=N)N)C(=O)N[C@H](C(=O)N[C@@H](Cc1ccc(O)cc1)C(=O)NC1(C(=O)N[C@@H](Cc2c[nH]cn2)C(=O)N2CCC[C@H]2C(=O)N[C@@H](CO)C(=O)O)CCCC1)C(C)C [SEQ ID NO: 22, Sar-Arg-Val-Tyr-cyPen-His-Pro-Ser] (H-[Sar]RVY[Ac5c]HPS-OH) | > 0.6 nM | < 104% | > 0.631 nM | > 1.3 nM |  | > 0.631 nM | < 105% | > 3.2 nM | > 3.16 nM | < 101% | > 3.2 nM | > 3.16 nM |
| CNCC(=O)N[C@@H](CCCNC(=N)N)C(=O)N[C@H](C(=O)N[C@@H](Cc1ccc(O)cc1)C(=O)N1CCC[C@H]1C(=O)N[C@@H](Cc1c[nH]cn1)C(=O)N1CCC[C@H]1C(=O)N[C@H](C)C(=O)O)C(C)C [SEQ ID NO: 60, Sar-Arg-Val-Tyr-Pro-His-Pro-D-Ala] (H-[Sar]RVYPHP[dA]-OH) | > 0.6 nM | < 104% | > 0.631 nM | > 1.3 nM | < 103% | > 0.631 nM | < 105% | > 3.2 nM | > 3.16 nM | < 101% | > 3.2 nM | > 3.16 nM |
| CNCC(=O)N[C@@H](CCCNC(=N)N)C(=O)N[C@H](C(=O)N[C@@H](Cc1ccc(O)cc1)C(=O)NC1(C(=O)N[C@@H](Cc2c[nH]cn2)C(=O)N2CCC[C@H]2C(=O)N[C@H](C(=O)O)[C@@H](C)O)CCCCC1)C(C)C [SEQ ID NO: 14, Sar-Arg-Val-Tyr-cyHex-His-Pro-Thr] (H-[Sar]RVY[Ac6c]HPT-OH) | > 0.6 nM |  | > 0.631 nM | > 1.3 nM |  | > 0.631 nM | < 105% | > 3.2 nM | > 3.16 nM | < 101% | > 3.2 nM | > 3.16 nM |
| CNCC(=O)N[C@@H](CCCNC(=N)N)C(=O)N[C@H](C(=O)N[C@@H](Cc1ccc(O)cc1)C(=O)NC1(C(=O)N[C@@H](Cc2c[nH]cn2)C(=O)N2CCC[C@H]2C(=O)N[C@H](C(=O)O)C(C)(C)C)CCCCC1)C(C)C [SEQ ID NO: 56, Sar-Arg-Val-Tyr-cyHex-His-Pro-AA02] (H-[Sar]RVY[Ac6c]HP[Tle]-OH) | > 0.6 nM | < 104% | > 0.631 nM | > 1.3 nM | < 103% | > 0.631 nM | < 105% | > 3.2 nM | > 3.16 nM | < 101% | > 3.2 nM | > 3.16 nM |
| CNCC(=O)N[C@@H](CCCNC(=N)N)C(=O)N[C@H](C(=O)N[C@@H](Cc1ccc(O)cc1)C(=O)NC1(C(=O)N[C@@H](Cc2c[nH]cn2)C(=O)N2CCC[C@H]2C(=O)N[C@@H](Cc2ccc(O)cc2)C(=O)O)CCCCC1)C(C)C [SEQ ID NO: 55, Sar-Arg-Val-Tyr-cyHex-His-Pro-Tyr] (H-[Sar]RVY[Ac6c]HPY-OH) | > 0.6 nM | < 104% | > 0.631 nM | > 1.3 nM | < 103% | > 0.631 nM | < 105% | > 3.2 nM | > 3.16 nM | < 101% | > 3.2 nM | > 3.16 nM |
| CNCC(=O)N[C@@H](CCCNC(=N)N)C(=O)N[C@H](C(=O)N[C@@H](Cc1ccc(O)cc1)C(=O)NC1(C(=O)N[C@@H](Cc2c[nH]cn2)C(=O)N2CCC[C@H]2C(=O)N[C@@H](CCSC)C(=O)O)CCCCC1)C(C)C [SEQ ID NO: 16, Sar-Arg-Val-Tyr-cyHex-His-Pro-Met] (H-[Sar]RVY[Ac6c]HPM-OH) | > 0.6 nM | < 104% | > 0.631 nM | > 1.3 nM | < 103% | > 0.631 nM | < 105% | > 3.2 nM | > 3.16 nM | < 101% | > 3.2 nM | > 3.16 nM |
